Measurements taken from US20210087279A1, “REGULATABLE CHIMERIC ANTIGEN RECEPTOR” (Novartis AG, priority 2014, published 2021).

Key:
[1] = system: NFAT activation in Jurkat cells with NFAT-LUC reporter (JNL); test: Jurkat NFAT-LUC assay, peptide tag (myc/Flag) dimerization switch; assay type: cell-based
Procedure: The non-regulatable CAR construct, 139scFv-BBZ, SEQ ID: 7, will be used as a control. Jurkat cells with NFAT-LUC reporter (JNL) were grown to the density of 0.5×10^6/ml in Jurkat cell growth media with puromycin at 0.5 μg/ml. For each transfection 2.5×10^6 cells were spun down at 100 g for 10 minutes. Two μg of DNA per construct was used per transfection. Amaxa Nucleofector solution V and supplement I were mixed and 100 μl was added into the tube with DNA construct. The mixture was then added to the cells and transferred to the electroporation cuvette. Electroporation was done under setting X-001 using Amaxa Nucleofector II Device. 0.5 ml of growth media was added immediately after eletroporation and the mixture were transferred into 2 ml growth media in one well of the 6-well plate. The cells were incubated in the 37° C. incubator with 5% CO2 overnight. Rabbit polyclonal antibody against myc tag was added to the cells which were transfected with RCAR construct with myc tag as the extracellular domain. The concentration of the polyclonal antibody was at 100 nM. One and half hour later, 100 nM of anti rabbit antibody was added in order to enhance cluster formation. The cell mixture was incubated at 37° C. for 18 hrs. Luciferase One Glo reagent 100 μl was added per well. The samples were incubated for 5 min at 37° C. and then luminescence was measured using a luminometer.
Similarly, a construct with Flag peptide tag as the extracellular domain was used to transfect reporter cells. Rabbit polyclonal antibody against Flag peptide tag was used at 100 nM; and to facilitate further clustering, an antibody against the rabbit polyclonal antibody was used at 100 nM. In addition, a construct with scFv 139 as the extracellular domain was used to transfect reporter cells, and EGFRvIII-Fc at 100 nM was used, and one and half hour later anti-Fc antibody was used.

[2] = molecular target: biotinylated FKBP in the presence of everolimus; test: FRB direct binding assay (AlphaLISA); settings: 30 nM biotinylated FKBP and FLAG FRB protein; everolimus serial diluted from 600 nM
Sequence of biotinylated FKBP in the presence of everolimus (P62942 2-108 limits assumed): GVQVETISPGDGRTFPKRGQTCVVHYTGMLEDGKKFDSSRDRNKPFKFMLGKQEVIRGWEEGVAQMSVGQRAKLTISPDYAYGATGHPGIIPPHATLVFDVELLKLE
Procedure: FRB mutations were also ranked in an alternative assay format. […] All dilutions were made in 1× AlphaLISA Immunoassay buffer (PerkinElmer). Anti-Flag acceptor beads (PerkinElmer) were added at 10 ug/ml final concentration and incubated for one hour at room temperature. Streptavidin donor beads (PerkinElmer), were then added at a final concentration of 40 ug/ml and the plate was protected from light and incubated for 30 minutes at room temperature. The plate was then read on the PerkinElmer EnVision Multiplate reader equipped with the Alpha Module using excitation of 680 nm and a 570 nm Emission filter.

[3] = system: reporter under NFAT control in JNL cells; test: Dimerization molecule dose response, single vector construct 143775 in JNL cells, CD19 target; assay type: cell-based; settings: nM to sub-nM doses
Text: The constructs and viral particles were made and tested essentially as described in Example 11. Viral particles were introduced into JNL cells and evaluated for activity essentially as described in Example 1 except that the target was CD19 (as opposed to EGFRviii).
Construct 143775 was introduced into cells and the affect of dimerization molecule concentration on activation evaluated essentially as described in Example 14.

Molecule | EC50 [2] [nM] | further results
RCAR with c-myc peptide tag: c-myc peptide tag fused to linker, 4-1BB and CD3zeta, SEQ ID NO: 21 | – | activation after addition of anti rabbit antibody ([1]; anti-myc antibody 100 nM plus anti rabbit antibody 100 nM): further enhanced; NFAT activity ([1]; rabbit polyclonal anti-myc antibody 100 nM, compared to other antibodies): higher NFAT activity
RCAR with Flag tag: flag peptide tag fused to linker, 4-1BB and CD3zeta, SEQ ID NO: 20 | – | activation ([1]; rabbit polyclonal anti-Flag antibody and anti-rabbit antibody, 100 nM each): only showed activation when both crosslinking reagents were added
CO[C@H]1C[C@@H]2CC[C@@H](C)[C@@](O)(O2)C(=O)C(=O)N2CCCC[C@H]2C(=O)O[C@H]([C@H](C)C[C@@H]2CC[C@@H](O)[C@H](OC)C2)CC(=O)[C@H](C)/C=C(\C)[C@@H](O)[C@@H](OC)C(=O)[C@H](C)C[C@H](C)/C=C/C=C/C=C/1C [rapamycin] | – | activation [3]: effective at a broad range of concentrations
E2032L: FRB point mutant; His-FRB SEQ ID NO: 208, His-FLAG-FRB SEQ ID NO: 214 | 2.15 | –

Continued, in another order:

EC50 [2] [nM] | Molecule | further results
3.9 | Wild type FRB: wild-type FRB; His-FRB SEQ ID NO: 206 (competition), His-FLAG-FRB SEQ ID NO: 212 (direct binding) | –
2.46 | E2032I: FRB point mutant; His-FRB SEQ ID NO: 207, His-FLAG-FRB SEQ ID NO: 213 | –
1.44 | T2098L: FRB point mutant; His-FRB SEQ ID NO: 209, His-FLAG-FRB SEQ ID NO: 215 | –
